Measured values: ChEMBL document CHEMBL6087437 (J Med Chem, 2025)

How the values were obtained:
[1] = tested on: Ebolavirus; assay: Antiviral activity against pseudotyped Ebola virus expressing glycoprotein infected in human A549 cells assessed as inhibition of viral entry incubated for 48 hrs by Neolite reporter gene assay; format: functional, organism-based; conditions: Orthoebolavirus, A549, 48 h
[2] = tested on: Marburgvirus; assay: Antiviral activity against pseudotyped Marburg virus expressing glycoprotein infected in human A549 cells assessed as inhibition of viral entry incubated for 48 hrs by Neolite reporter gene assay; format: functional, organism-based; conditions: Orthomarburgvirus, A549, 48 h
[3] = Selectivity index, ratio of CC50 for human A549 cells to EC50 for pseudotyped Ebola virus expressing glycoprotein infected in human A549 cells; format: toxicity, cell-based; conditions: read-out: Ratio CC50/EC50
[4] = tested on: Zaire ebolavirus; assay: Antiviral activity against pseudotyped Zaire ebolavirus expressing glycoprotein infected in human A549 cells assessed as inhibition of viral entry incubated for 48 hrs by Neolite reporter gene assay; format: functional, organism-based; conditions: A549, 48 h
[5] = tested on: Sudan ebolavirus; assay: Antiviral activity against pseudotyped Sudan ebolavirus expressing glycoprotein infected in human A549 cells assessed as inhibition of viral entry incubated for 48 hrs by Neolite reporter gene assay; format: functional, organism-based; conditions: A549, 48 h
[6] = tested on: Bundibugyo virus; assay: Antiviral activity against pseudotyped Bundibugyo ebolavirus expressing glycoprotein infected in human A549 cells assessed as inhibition of viral entry incubated for 48 hrs by Neolite reporter gene assay; format: functional, organism-based; conditions: A549, 48 h
[7] = tested on: Reston ebolavirus; assay: Antiviral activity against pseudotyped Reston ebolavirus expressing glycoprotein infected in human A549 cells assessed as inhibition of viral entry incubated for 48 hrs by Neolite reporter gene assay; format: functional, organism-based; conditions: A549, 48 h
[8] = tested on: Tai Forest ebolavirus; assay: Antiviral activity against pseudotyped Tai Forest ebolavirus expressing glycoprotein infected in human A549 cells assessed as inhibition of viral entry incubated for 48 hrs by Neolite reporter gene assay; format: functional, organism-based; conditions: A549, 48 h
[9] = tested on: Ebolavirus; assay: Antiviral activity against wildtype Ebola virus infected in human HeLa cells incubated for 40 hrs by Hoechst 33342 staining based Cytation-1 automated microscopic analysis; format: functional, organism-based; conditions: Orthoebolavirus
[10] = tested on: HeLa; assay: Cytotoxicity against human HeLa cells by Celltiter-Glo luminescent cell viability assay; format: toxicity, cell-based
[11] = Metabolic stability in human liver microsomes assessed as parent compound remaining measured after 60 mins in presence of NADPH by LC-MS/MS analysis; format: ADME, Microsome; conditions: read-out: Stability
[12] = Metabolic stability in BALB/c mouse liver microsomes assessed as parent compound remaining measured after 60 mins in presence of NADPH by LC-MS/MS analysis; format: ADME, Microsome; conditions: read-out: Stability
[13] = Stability in human plasma assessed as parent compound remaining at 2 uM measured after 60 mins by LC-MS/MS analysis; format: ADME, cell-free; conditions: read-out: Stability
[14] = Stability in mouse plasma assessed as parent compound remaining at 2 uM measured after 60 mins by LC-MS/MS analysis; format: ADME, cell-free; conditions: read-out: Stability
[15] = target: T1, CYP1A2 (Homo sapiens, UniProt P05177); assay: Inhibition of CYP1A2 in human liver microsomes using phenacetin as substrate at 10 uM preincubated for 5 mins followed by substrate addition and measured after 20 mins by LC-MS analysis relative to control; format: ADME, Microsome; conditions: probe phenacetin, time 25 min
T1 sequence (P05177 whole entry): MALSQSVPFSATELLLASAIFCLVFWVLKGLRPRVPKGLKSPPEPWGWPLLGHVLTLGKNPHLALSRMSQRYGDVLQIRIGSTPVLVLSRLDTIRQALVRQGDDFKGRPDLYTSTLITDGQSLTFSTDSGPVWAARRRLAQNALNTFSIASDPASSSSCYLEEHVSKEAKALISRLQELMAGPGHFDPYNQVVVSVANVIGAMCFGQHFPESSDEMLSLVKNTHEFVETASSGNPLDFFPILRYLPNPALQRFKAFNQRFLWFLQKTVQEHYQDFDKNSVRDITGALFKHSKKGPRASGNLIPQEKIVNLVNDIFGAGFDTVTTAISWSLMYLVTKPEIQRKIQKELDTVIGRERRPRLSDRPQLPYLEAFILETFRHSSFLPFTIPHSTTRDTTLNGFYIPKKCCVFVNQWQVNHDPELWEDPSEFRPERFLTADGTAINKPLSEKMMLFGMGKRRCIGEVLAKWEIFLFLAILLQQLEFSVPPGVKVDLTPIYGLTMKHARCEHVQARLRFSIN

[16] = target: CYP2C9 (Homo sapiens, UniProt P11712); assay: Inhibition of CYP2C9 in human liver microsomes using tolbutamide as substrate at 10 uM preincubated for 5 mins followed by substrate addition and measured after 20 mins by LC-MS analysis relative to control; format: ADME, Microsome; conditions: probe tolbutamide, time 25 min
CYP2C9, sequence (P11712 whole entry): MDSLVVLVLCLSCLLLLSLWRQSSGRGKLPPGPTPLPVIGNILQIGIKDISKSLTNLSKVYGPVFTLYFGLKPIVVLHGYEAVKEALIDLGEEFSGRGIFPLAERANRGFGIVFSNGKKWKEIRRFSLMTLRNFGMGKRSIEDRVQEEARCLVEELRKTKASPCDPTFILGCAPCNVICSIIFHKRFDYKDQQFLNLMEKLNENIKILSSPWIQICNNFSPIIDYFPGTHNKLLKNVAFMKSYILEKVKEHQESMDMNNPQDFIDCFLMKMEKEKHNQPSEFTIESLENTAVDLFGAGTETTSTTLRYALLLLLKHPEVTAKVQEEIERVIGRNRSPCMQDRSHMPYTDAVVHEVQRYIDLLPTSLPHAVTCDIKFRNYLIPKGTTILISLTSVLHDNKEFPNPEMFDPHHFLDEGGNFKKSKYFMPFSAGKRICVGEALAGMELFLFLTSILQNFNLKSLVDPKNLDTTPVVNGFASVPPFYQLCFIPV

[17] = target: CYP2D6 (Homo sapiens, UniProt P10635); assay: Inhibition of CYP2D6 in human liver microsomes using dextromethorphan as substrate at 10 uM preincubated for 5 mins followed by substrate addition and measured after 20 mins by LC-MS analysis relative to control; format: ADME, Microsome; conditions: probe dextromethorphan, time 25 min
CYP2D6, sequence (P10635 whole entry): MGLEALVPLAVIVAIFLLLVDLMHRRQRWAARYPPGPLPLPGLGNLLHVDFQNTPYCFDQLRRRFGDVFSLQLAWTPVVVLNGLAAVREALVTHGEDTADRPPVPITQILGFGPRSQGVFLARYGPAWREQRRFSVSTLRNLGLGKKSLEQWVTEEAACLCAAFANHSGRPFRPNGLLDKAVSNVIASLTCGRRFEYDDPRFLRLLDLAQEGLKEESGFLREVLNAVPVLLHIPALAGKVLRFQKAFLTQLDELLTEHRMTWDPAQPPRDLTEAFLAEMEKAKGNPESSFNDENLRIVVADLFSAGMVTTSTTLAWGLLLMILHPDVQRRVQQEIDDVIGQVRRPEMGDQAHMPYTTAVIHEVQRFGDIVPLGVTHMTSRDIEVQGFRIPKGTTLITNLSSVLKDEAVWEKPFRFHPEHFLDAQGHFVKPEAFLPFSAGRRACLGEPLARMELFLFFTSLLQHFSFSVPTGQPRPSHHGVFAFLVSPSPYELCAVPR

[18] = target: CYP3A4 (Homo sapiens, UniProt P08684); assay: Inhibition of CYP3A4 in human liver microsomes using midazolam as substrate at 10 uM preincubated for 5 mins followed by substrate addition and measured after 20 mins by LC-MS analysis relative to control; format: ADME, Microsome; conditions: probe midazolam, time 25 min
CYP3A4, sequence (P08684 whole entry): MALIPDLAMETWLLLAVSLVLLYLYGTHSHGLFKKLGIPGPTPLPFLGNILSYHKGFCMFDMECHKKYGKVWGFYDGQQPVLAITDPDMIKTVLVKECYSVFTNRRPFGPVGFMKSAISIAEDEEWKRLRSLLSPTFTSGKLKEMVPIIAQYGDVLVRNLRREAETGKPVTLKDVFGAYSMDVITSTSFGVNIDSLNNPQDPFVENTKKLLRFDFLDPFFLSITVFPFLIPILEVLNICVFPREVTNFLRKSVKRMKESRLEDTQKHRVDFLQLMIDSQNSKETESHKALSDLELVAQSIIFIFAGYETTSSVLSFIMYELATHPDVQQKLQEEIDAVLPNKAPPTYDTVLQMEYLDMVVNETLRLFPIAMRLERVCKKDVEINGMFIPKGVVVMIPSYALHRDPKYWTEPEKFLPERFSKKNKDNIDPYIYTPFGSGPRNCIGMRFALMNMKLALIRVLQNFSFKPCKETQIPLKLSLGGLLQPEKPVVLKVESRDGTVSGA

[19] = target: Voltage-gated inwardly rectifying potassium channel KCNH2 (Homo sapiens, UniProt Q12809); assay: Inhibition of human ERG; format: toxicity
Voltage-gated inwardly rectifying potassium channel KCNH2, sequence (Q12809 whole entry): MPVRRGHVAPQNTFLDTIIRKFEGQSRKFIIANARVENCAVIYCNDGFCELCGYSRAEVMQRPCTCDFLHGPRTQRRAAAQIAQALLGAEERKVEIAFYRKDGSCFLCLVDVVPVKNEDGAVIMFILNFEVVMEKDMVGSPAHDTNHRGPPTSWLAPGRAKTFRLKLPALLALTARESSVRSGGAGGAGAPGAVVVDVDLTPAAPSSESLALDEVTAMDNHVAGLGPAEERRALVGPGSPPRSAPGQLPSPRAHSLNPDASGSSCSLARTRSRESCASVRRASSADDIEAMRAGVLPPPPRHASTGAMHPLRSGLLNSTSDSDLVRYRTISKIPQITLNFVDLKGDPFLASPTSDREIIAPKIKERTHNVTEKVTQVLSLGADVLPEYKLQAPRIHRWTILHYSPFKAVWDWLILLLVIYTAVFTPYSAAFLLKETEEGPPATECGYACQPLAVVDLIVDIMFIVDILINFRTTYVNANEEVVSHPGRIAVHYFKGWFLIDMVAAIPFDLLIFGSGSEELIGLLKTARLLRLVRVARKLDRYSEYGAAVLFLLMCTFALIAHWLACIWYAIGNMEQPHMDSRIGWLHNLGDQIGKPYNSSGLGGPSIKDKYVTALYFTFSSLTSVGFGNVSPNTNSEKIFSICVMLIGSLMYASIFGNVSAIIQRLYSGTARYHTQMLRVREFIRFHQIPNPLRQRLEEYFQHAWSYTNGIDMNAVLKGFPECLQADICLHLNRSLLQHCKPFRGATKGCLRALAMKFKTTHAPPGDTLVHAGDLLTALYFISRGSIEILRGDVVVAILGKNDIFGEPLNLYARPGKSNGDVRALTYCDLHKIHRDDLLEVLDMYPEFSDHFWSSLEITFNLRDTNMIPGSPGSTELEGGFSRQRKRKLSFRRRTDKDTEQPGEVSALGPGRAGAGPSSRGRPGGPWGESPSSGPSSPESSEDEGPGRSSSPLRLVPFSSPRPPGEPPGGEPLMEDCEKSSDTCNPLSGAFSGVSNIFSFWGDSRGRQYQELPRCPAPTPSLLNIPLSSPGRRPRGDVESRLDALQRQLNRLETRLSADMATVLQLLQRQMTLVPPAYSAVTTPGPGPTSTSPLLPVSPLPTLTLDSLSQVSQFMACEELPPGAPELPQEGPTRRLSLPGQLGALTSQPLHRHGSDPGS

[20] = Toxicity in female C57BL/6J mouse assessed as adverse effect at 25 to 50 mg/kg, ip; format: organism-based; conditions: in vivo, dose 25-50 mg/kg
[21] = Half-life in female C57BL/6J mouse at 25 mg/kg, ip; format: ADME, organism-based; conditions: in vivo
[22] = Tmax in female C57BL/6J mouse at 25 mg/kg, ip; format: ADME, organism-based; conditions: in vivo
[23] = Cmax in female C57BL/6J mouse at 25 mg/kg, ip; format: ADME, organism-based; conditions: in vivo
[24] = AUC in female C57BL/6J mouse at 25 mg/kg, ip; format: ADME, organism-based; conditions: in vivo
[25] = Clearance in female C57BL/6J mouse at 25 mg/kg, ip; format: ADME, organism-based; conditions: in vivo
[26] = Half-life in female C57BL/6J mouse at 50 mg/kg, ip; format: ADME, organism-based; conditions: in vivo
[27] = Tmax in female C57BL/6J mouse at 50 mg/kg, ip; format: ADME, organism-based; conditions: in vivo
[28] = Cmax in female C57BL/6J mouse at 50 mg/kg, ip; format: ADME, organism-based; conditions: in vivo
[29] = AUC in female C57BL/6J mouse at 50 mg/kg, ip; format: ADME, organism-based; conditions: in vivo
[30] = Clearance in female C57BL/6J mouse at 50 mg/kg, ip; format: ADME, organism-based; conditions: in vivo
[31] = tested on: Influenza A virus; assay: Antiviral activity against pseudotyped Influenza A virus A/Goose/Qinghai/59/05(H5N1) infected in human A549 cells assessed as inhibition of viral entry incubated for 48 hrs by Neolite reporter gene assay; format: functional, organism-based
[32] = tested on: Vesicular stomatitis virus; assay: Antiviral activity against pseudotyped vesicular stomatitis virus expressing glycoprotein infected in human A549 cells assessed as inhibition of viral entry incubated for 48 hrs by Neolite reporter gene assay; format: functional, organism-based

## CN1CCN(c2ccc(NC(=O)c3ccc(CN4CCOCC4)cc3)cc2C(F)(F)F)CC1
[1]
  EC50: 970 nM
[2]
  EC50: 3930 nM
[3]
  selectivity ratio: 37

## CC(C)C1CCN(c2ccc(NC(=O)c3ccc(CN4CCOCC4)cc3)cc2C(F)(F)F)CC1
[1]
  EC50: 560 nM
[2]
  EC50: 5640 nM
[3]
  selectivity ratio: 28

## CC1CCN(c2ccc(NC(=O)c3ccc(CN4C[C@@H]5C[C@H]4CO5)cn3)cc2C(F)(F)F)CC1
[1]
  EC50: 290 nM
[2]
  EC50: 8230 nM
[3]
  selectivity ratio: 345

## O=C(Nc1ccc(N2CCCC2)c(C(F)(F)F)c1)c1ccc(CN2CCOCC2)cc1
[1]
  EC50: 3300 nM
[2]
  EC50: 14900 nM
[3]
  selectivity ratio: 18

## CC1CCN(c2ccc(NC(=O)c3ccc(CN4CCOCC4)cc3)cc2F)CC1
[1]
  EC50: > 100000 nM
[2]
  EC50: > 100000 nM
[3]
  selectivity ratio: > 1

## O=C(Nc1ccc(N2CCC3(CCC3)CC2)c(C(F)(F)F)c1)c1ccc(CN2C[C@@H]3C[C@H]2CO3)nc1
[1]
  EC50: 120 nM
[2]
  EC50: 680 nM
[4]
  EC50: 120 nM
[5]
  EC50: 2140 nM
[6]
  EC50: 840 nM
[7]
  EC50: 300 nM
[8]
  EC50: 290 nM
[9]
  EC50: 440 nM
[10]
  CC50: 19100 nM
[11]
  remaining at 1 h: 60%
[12]
  remaining at 1 h: 77%
[13]
  remaining at 1 h, 2 µM: ~100%
[14]
  remaining at 1 h, 2 µM: 90%
[15]
  inhibition at 20 min, 10 µM: 5.4%
[16]
  inhibition at 20 min, 10 µM: 66.4%
[17]
  inhibition at 20 min, 10 µM: 35.2%
[18]
  inhibition at 20 min, 10 µM: 4.9%
[19]
  IC50: 1500 nM
[20]
  Activity: Non-toxic
[21]
  half-life: 3.4 h
[22]
  Tmax: 0.5 h
[23]
  Cmax: 2170 ng/mL
[24]
  AUC: 14300 ng·h/mL
[25]
  CL/F: 29.2 mL/min/kg
[26]
  half-life: 4.8 h
[27]
  Tmax: 1 h
[28]
  Cmax: 6790 ng/mL
[29]
  AUC: 34400 ng·h/mL
[30]
  CL/F: 24.3 mL/min/kg
[31]
  inhibition: Weak_effect
[32]
  inhibition: Weak_effect

## CC1CCN(c2ccc(NC(=O)c3ccc(CN4CCOCC4)cc3)cc2Cl)CC1
[1]
  EC50: 4320 nM
[2]
  EC50: 18500 nM
[3]
  selectivity ratio: 6

## CC1CCN(c2ccc(NC(=O)Nc3ccc(CN4CCOCC4)cc3)cc2C(F)(F)F)CC1
[1]
  EC50: 2180 nM
[2]
  EC50: 3490 nM
[3]
  selectivity ratio: 7
